Measured values: patent publication US9469645B2, “Compounds and compositions for the treatment of parasitic diseases” (Novartis AG, priority 2009, dated 2016)

Legend:
3D7 P. falciparum strain = test: parasite proliferation assay in infected red blood cells (SYBR Green I); assay type: cell-based, Plasmodium falciparum; conditions: Plasmodium falciparum, 3D7, Erythrocyte, 3D7 strain; read-out: EC50 3D7 strain
Summary of the method: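 P. falciparum 3D7 grown in O+ human erythrocytes to 3–8% parasitemia and exposed to compounds. Proliferation read as the increase in parasite DNA. Detection used SYBR Green I in saponin/triton-X/EDTA lysis buffer, with overnight lysis at room temperature.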

W2 strain = test: parasite proliferation assay in infected red blood cells (SYBR Green I), W2 strain; assay type: cell-based; conditions: Erythrocyte
Description: Compounds of the invention can be assayed to measure their capacity to inhibit proliferation of parasitemia in infected red blood cells. The proliferation is quantified by the addition of SYBR Green I (INVITROGEN)® dye which has a high affinity for double stranded DNA.

Structure (SMILES)	EC50 (3D7 P. falciparum strain)	EC50 (W2 strain)
CCN1CCC(CC(=O)N2CCn3c(nc(-c4ccc(F)cc4)c3Nc3ccc(C)cc3)C2)CC1 [Compound 214]	2850 nM	2010 nM
Cc1ccc(Nc2c(-c3ccc(F)cc3)nc3n2CCN(C(=O)CC2CCOC2)C3)cc1 (stereo not shown) [Compound 215]	830 nM	650 nM
Cc1ccc(Nc2c(-c3ccc(F)cc3)nc3n2CCN(C(=O)CC2CCCCO2)C3)cc1 (stereo not shown) [Compound 216]	300 nM	248 nM
Fc1cccc(-c2nc3n(c2Nc2ccc(Cl)c(F)c2)CCNC3)c1 [Compound 217]	130 nM	106 nM
CCCC(=O)NCc1ccc(C[C@H](N)C(=O)N2CCn3c(nc(-c4ccc(F)cc4)c3Nc3ccc(C)cc3)C2)cc1 [Compound 218]	4710 nM	4010 nM
CCC(=O)NCc1ccc(C[C@H](N)C(=O)N2CCn3c(nc(-c4ccc(F)cc4)c3Nc3ccc(C)cc3)C2)cc1 [Compound 219]	4970 nM	3410 nM
Cc1ccc(Nc2c(-c3ccc(F)cc3)nc3n2CCN(C(=O)CC2CCNCC2)C3)cc1 [Compound 220]	1130 nM	937 nM
NC(C(=O)N1CCn2c(nc(-c3cccc(F)c3)c2Nc2ccc(Cl)c(F)c2)C1)C(F)(F)F (stereo not shown) [Compound 221]	90 nM	83 nM
C[C@@H](C(=O)N1CCn2c(nc(-c3cccc(F)c3)c2Nc2ccc(Cl)c(F)c2)C1)c1ccccc1 [Compound 222]	140 nM	103 nM
C[C@H](C(=O)N1CCn2c(nc(-c3cccc(F)c3)c2Nc2ccc(Cl)c(F)c2)C1)c1ccccc1 [Compound 223]	260 nM	206 nM
CC[C@H](C(=O)N1CCn2c(nc(-c3ccc(F)cc3)c2Nc2ccc(C)cc2)C1)c1ccccc1 [Compound 225]	550 nM	316 nM
Cc1ccc(Nc2c(-c3ccc(F)cc3)nc3n2CCN(C(=O)C(c2ccccc2)C2CCCC2)C3)cc1 (stereo not shown) [Compound 226]	480 nM	348 nM
Cc1ccc(Nc2c(-c3ccc(F)cc3)nc3n2CCN(C(=O)Cc2ccncc2)C3)cc1 [Compound 227]	90 nM	103 nM
NCC(=O)N1CCn2c(nc(-c3cccc(F)c3)c2Nc2ccc(Cl)c(F)c2)C1 [Compound 228]	10 nM	8 nM
CC(C)(N)C(=O)N1CCn2c(nc(-c3cccc(F)c3)c2Nc2ccc(Cl)c(F)c2)C1 [Compound 229]	10 nM	7 nM
Cc1ccc(Nc2c(-c3ccc(F)cc3)nc3n2CCN(C(=O)Cc2cc(Cl)cc(Cl)c2)C3)cc1 [Compound 230]	320 nM	255 nM
Cc1ccc(Nc2c(-c3ccc(F)cc3)nc3n2CCN(C(=O)C(c2ccccc2)C(C)C)C3)cc1 (stereo not shown) [Compound 231]	90 nM	70 nM
Cc1ccc(CC(=O)N2CCn3c(nc(-c4ccc(F)cc4)c3Nc3ccc(C)cc3)C2)cc1 [Compound 232]	50 nM	44 nM
Cc1ccc(Nc2c(-c3ccc(F)cc3)nc3n2CCN(C(=O)Cc2ccc(F)cc2)C3)cc1 [Compound 233]	10 nM	15 nM

Structure (SMILES)	EC50 (3D7 P. falciparum strain)	EC50 (W2 strain)
CC(C)(O)CC(=O)N1CCn2c(nc(-c3cccc(F)c3)c2Nc2ccc(Cl)c(F)c2)C1 [Compound 234]	130 nM	111 nM
CC(C)(O)CC(=O)N1CCn2c(nc(-c3cccc(F)c3)c2Nc2ccc(F)cc2)C1 [Compound 235]	540 nM	496 nM
CC(C)(C)OC(=O)N[C@@H](CC(=O)OCc1ccccc1)C(=O)N1CCn2c(nc(-c3cccc(F)c3)c2Nc2ccc(Cl)c(F)c2)C1 [Compound 236]	5250 nM	2060 nM
CC(C)(C)OC(=O)N[C@@H](CC(=O)OCc1ccccc1)C(=O)N1CCn2c(nc(-c3cccc(F)c3)c2Nc2ccc(F)cc2)C1 [Compound 237]	7190 nM	5720 nM
CC(C)(C)OC(=O)N[C@@H](CC(=O)O)C(=O)N1CCn2c(nc(-c3cccc(F)c3)c2Nc2ccc(Cl)c(F)c2)C1 [Compound 240]	10500 nM	6990 nM
CC(C)(C)OC(=O)N[C@@H](CC(=O)O)C(=O)N1CCn2c(nc(-c3cccc(F)c3)c2Nc2ccc(F)cc2)C1 [Compound 241]	5270 nM	2360 nM
CC(C)(C)OC(=O)N[C@@H](Cc1ccc(N)cc1)C(=O)N1CCn2c(nc(-c3cccc(F)c3)c2Nc2ccc(Cl)c(F)c2)C1 [Compound 242]	2090 nM	288 nM
CC(C)(C)OC(=O)N[C@@H](Cc1ccc(N)cc1)C(=O)N1CCn2c(nc(-c3cccc(F)c3)c2Nc2ccc(F)cc2)C1 [Compound 243]	2970 nM	697 nM
Cc1ccc(Nc2c(-c3ccc(F)cc3)nc3n2CCN(C(=O)C(C)(C)CO)C3)cc1 [Compound 244]	2400 nM	1330 nM
Cc1ccc(Nc2c(-c3ccc(F)cc3)nc3n2CCN(C(=O)C(C)(CO)CO)C3)cc1 [Compound 245]	2530 nM	1800 nM
Cc1ccc(Nc2c(-c3ccc(F)cc3)nc3n2CCN(C(=O)[C@H](Cc2cccc(N)c2)NC(=O)OC(C)(C)C)C3)cc1 [Compound 246]	3880 nM	1790 nM
CCCNC(=O)C[C@H](NC(=O)OC(C)(C)C)C(=O)N1CCn2c(nc(-c3cccc(F)c3)c2Nc2ccc(Cl)c(F)c2)C1 [Compound 247]	1420 nM	3940 nM
CCCNC(=O)C[C@H](NC(=O)OC(C)(C)C)C(=O)N1CCn2c(nc(-c3cccc(F)c3)c2Nc2ccc(F)cc2)C1 [Compound 248]	7010 nM	4560 nM
N#Cc1ccc(Nc2c(-c3ccc(F)cc3)nc3n2CCNC3)cc1 [Compound 249]	5390 nM	5060 nM
CCCCCNC(=O)C[C@H](NC(=O)OC(C)(C)C)C(=O)N1CCn2c(nc(-c3cccc(F)c3)c2Nc2ccc(F)cc2)C1 [Compound 250]	3880 nM	3980 nM
CCCCC(=O)Nc1ccc(C[C@H](NC(=O)OC(C)(C)C)C(=O)N2CCn3c(nc(-c4cccc(F)c4)c3Nc3ccc(Cl)c(F)c3)C2)cc1 [Compound 252]	3030 nM	631 nM
CCC(=O)Nc1ccc(C[C@H](NC(=O)OC(C)(C)C)C(=O)N2CCn3c(nc(-c4cccc(F)c4)c3Nc3ccc(Cl)c(F)c3)C2)cc1 [Compound 253]	780 nM	254 nM
CCCCC(=O)Nc1ccc(C[C@H](NC(=O)OC(C)(C)C)C(=O)N2CCn3c(nc(-c4cccc(F)c4)c3Nc3ccc(F)cc3)C2)cc1 [Compound 254]	3440 nM	727 nM
CCCNC(=O)C[C@H](N)C(=O)N1CCn2c(nc(-c3cccc(F)c3)c2Nc2ccc(Cl)c(F)c2)C1 [Compound 255]	610 nM	653 nM

Structure (SMILES)	EC50 (3D7 P. falciparum strain)	EC50 (W2 strain)
CCCNC(=O)C[C@H](N)C(=O)N1CCn2c(nc(-c3cccc(F)c3)c2Nc2ccc(F)cc2)C1 [Compound 256]	1160 nM	1480 nM
CCCCCNC(=O)C[C@H](N)C(=O)N1CCn2c(nc(-c3cccc(F)c3)c2Nc2ccc(F)cc2)C1 [Compound 257]	6680 nM	7000 nM
CCCCC(=O)Nc1ccc(C[C@H](N)C(=O)N2CCn3c(nc(-c4cccc(F)c4)c3Nc3ccc(Cl)c(F)c3)C2)cc1 [Compound 258]	4920 nM	3510 nM
CCC(=O)Nc1ccc(C[C@H](N)C(=O)N2CCn3c(nc(-c4cccc(F)c4)c3Nc3ccc(Cl)c(F)c3)C2)cc1 [Compound 259]	5320 nM	3020 nM
CCCCC(=O)Nc1ccc(C[C@H](N)C(=O)N2CCn3c(nc(-c4cccc(F)c4)c3Nc3ccc(F)cc3)C2)cc1 [Compound 260]	7640 nM	5010 nM
CCC(=O)Nc1ccc(C[C@H](N)C(=O)N2CCn3c(nc(-c4cccc(F)c4)c3Nc3ccc(F)cc3)C2)cc1 [Compound 261]	7060 nM	4130 nM
CC(C)(N)C(=O)N1CCn2c(nc(-c3ccc(F)cc3)c2Nc2ccc(C#N)cc2)C1 [Compound 263]	350 nM	653 nM
N#Cc1ccc(Nc2c(-c3ccc(F)cc3)nc3n2CCN(C(=O)CN)C3)cc1 [Compound 264]	110 nM	154 nM
CC(C)(O)CC(=O)N1CCn2c(nc(-c3ccc(F)cc3)c2Nc2ccc(C#N)cc2)C1 [Compound 265]	1350 nM	1580 nM
CCCCCNc1ccc(C[C@H](NC(=O)OC(C)(C)C)C(=O)N2CCn3c(nc(-c4ccc(F)cc4)c3Nc3ccc(C)cc3)C2)cc1 [Compound 267, (S)-tert-butyl 1-(2-(4-fluorophenyl)-3-(p-tolylamino)-5,6-dihydroimidazo[1,2-a]pyrazin-7 (8H)-yl)-1-oxo-3-(4-(pentylamino)phenyl)propan-2-ylcarbamate]	990 nM	474 nM
CCC(=O)OC(C(=O)N1CCn2c(nc(-c3ccc(F)cc3)c2Nc2ccc(C)cc2)C1)c1ccccc1 (stereo not shown) [Compound 268]	10 nM	12 nM
CCCC(=O)OC(C(=O)N1CCn2c(nc(-c3ccc(F)cc3)c2Nc2ccc(C)cc2)C1)c1ccccc1 (stereo not shown) [Compound 269]	10 nM	6 nM
O=C(CN1CCn2c(nc(-c3ccc(F)cc3)c2Nc2ccc(Cl)cc2)C1)c1ccc(F)cc1 [Compound 271]	440 nM	385 nM
CCCCCNc1ccc(C[C@H](N)C(=O)N2CCn3c(nc(-c4ccc(F)cc4)c3Nc3ccc(C)cc3)C2)cc1 [Compound 272]	3590 nM	3260 nM
Cc1ccc(Nc2c(-c3ccc(F)cc3)nc3n2CCN(C(=O)N2CCC(N4CCCC(C)C4)CC2)C3)cc1 (stereo not shown) [Compound 273]	3330 nM	3470 nM
Cc1ccc(Nc2c(-c3ccc(F)cc3)nc3n2CCN(C(=O)N2CCC(N4CCCCC4)CC2)C3)cc1 [Compound 274]	5140 nM	5670 nM
Cc1ccc(Nc2c(-c3ccc(F)c(F)c3)nc3n2CCNC3)cc1 [Compound 278]	210 nM	269 nM
Cc1ccc(Nc2c(-c3cccc(Cl)c3)nc3n2CCNC3)cc1 [Compound 279]	3520 nM	3830 nM
